What all share (assay): Post-emergence efficacy, Method A
Type in all cases: in vivo

Assay [1] has as its system Digitaria sanguinalis (DIGSA). To be noted: Digitaria sanguinalis, post-emergence, 312 h, evaluated after 13 days. In outline: (§1)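 Visual damage score, 0 (no damage) to 100 (total), taken 13 d after spraying. Pot-grown plants at 14 d post-sowing received an aqueous spray from a 50 g/l acetone/IF50 solution diluted in 0.25% or 1% Empicol ESC70 + 1% ammonium sulphate; glasshouse 24/16 °C, 14 h light, 65% RH, watered twice daily.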

A further assay concerns Eleusine indica (ELEIN). To be noted: Eleusine indica, post-emergence, 312 h, evaluated after 13 days. The essentials: as §1
Assay [2] has as its system Ipomoea hederacea (IPOHE). To be noted: Ipomoea hederacea, post-emergence, 312 h, evaluated after 13 days. In outline:
as §1

Assay [3] deals with Amaranthus palmeri (AMAPA). To be noted: Amaranthus palmeri, post-emergence, 312 h, evaluated after 13 days. The essentials:
as §1

The next assay relates to Lolium perenne (LOLPE). To be noted: Lolium perenne, post-emergence, 312 h, evaluated after 13 days. The essentials: as §1
In assay [4] the test system is Euphorbia heterophylla (EPHHL). To be noted: Euphorbia heterophylla, post-emergence, 312 h, evaluated after 13 days. The essentials: as §1
The subject of another assay is Setaria faberi (SETFA). To be noted: Setaria faberi, post-emergence, 312 h, evaluated after 13 days. In outline:
as §1

Assay [5] has as its system Chenopodium album (CHEAL). To be noted: Chenopodium album, post-emergence, 312 h, evaluated after 13 days. In outline:
as §1

The subject of assay [6] is Echinochloa crus-galli (ECHCG). To be noted: Echinochloa crus-galli, post-emergence, 312 h, evaluated after 13 days. In outline:
as §1

Where [7] appears, read: Application rate 500 g/Ha, 100=total damage to plant, 0=no damage to plant, read-out: Control of weed species after post-emergence application, DIGSA.
Where [8] appears, read: Application rate 500 g/Ha, 100=total damage to plant, 0=no damage to plant, read-out: Control of weed species after post-emergence application, ELEIN.
The mark [9] stands for this setting: Application rate 500 g/Ha, 100=total damage to plant, 0=no damage to plant, read-out: Control of weed species after post-emergence application, IPOHE.
The mark [10] stands for this setting: Application rate 500 g/Ha, 100=total damage to plant, 0=no damage to plant, read-out: Control of weed species after post-emergence application, AMAPA.
Setting [11] is: Application rate 500 g/Ha, 100=total damage to plant, 0=no damage to plant, read-out: Control of weed species after post-emergence application, LOLPE.
Setting [12] is: Application rate 500 g/Ha, 100=total damage to plant, 0=no damage to plant, read-out: Control of weed species after post-emergence application, EPHHL.
The mark [13] stands for this setting: Application rate 500 g/Ha, 100=total damage to plant, 0=no damage to plant, read-out: Control of weed species after post-emergence application, SETFA.
The mark [14] stands for this setting: Application rate 500 g/Ha, 100=total damage to plant, 0=no damage to plant, read-out: Control of weed species after post-emergence application, CHEAL.
The mark [15] stands for this setting: Application rate 500 g/Ha, 100=total damage to plant, 0=no damage to plant, read-out: Control of weed species after post-emergence application, ECHCG.
Setting [16] is: Application Rate 500 g/Ha, Method A, read-out: Control of weed species after post-emergence application, DIGSA (100=total damage to plant; 0=no damage to plant).
[17] abbreviates: Application Rate 500 g/Ha, Method A, read-out: Control of weed species after post-emergence application, ELEIN (100=total damage to plant; 0=no damage to plant).
Setting [18] is: Application Rate 500 g/Ha, Method A, read-out: Control of weed species after post-emergence application, IPOHE (100=total damage to plant; 0=no damage to plant).
Where [19] appears, read: Application Rate 500 g/Ha, Method A, read-out: Control of weed species after post-emergence application, AMAPA (100=total damage to plant; 0=no damage to plant).
Where [20] appears, read: Application Rate 500 g/Ha, Method A, read-out: Control of weed species after post-emergence application, LOLPE (100=total damage to plant; 0=no damage to plant).
The mark [21] stands for this setting: Application Rate 500 g/Ha, Method A, read-out: Control of weed species after post-emergence application, EPHHL (100=total damage to plant; 0=no damage to plant).
Where [22] appears, read: Application Rate 500 g/Ha, Method A, read-out: Control of weed species after post-emergence application, SETFA (100=total damage to plant; 0=no damage to plant).
Where [23] appears, read: Application Rate 500 g/Ha, Method A, read-out: Control of weed species after post-emergence application, CHEAL (100=total damage to plant; 0=no damage to plant).
Where [24] appears, read: Application Rate 500 g/Ha, Method A, read-out: Control of weed species after post-emergence application, ECHCG (100=total damage to plant; 0=no damage to plant).

Like-named read-outs stand apart in the source and are kept apart here.

In the case of `Cc1cnc(-c2cc[n+](CCC(=O)O)nc2)nc1` [Compound A36], the pest or weed control at 500 g/ha came out at 90% in assay [1] (setting [7]); 100% in the assay with Eleusine indica (ELEIN) (setting [8]); 30% in assay [2] (setting [9]); 100% in assay [3] (setting [10]); 80% in the assay with Lolium perenne (LOLPE) (setting [11]); 90% in assay [4] (setting [12]). The figures for the pest or weed control at 500 g/ha (in the assay with Setaria faberi (SETFA) (setting [13]); in assay [5] (setting [14]); in assay [6] (setting [15])) were 100%, 90% and 90%, respectively.

`O=S(=O)([O-])CCC[n+]1ccc(-c2cnc(Cl)cn2)cn1` [Compound A79]: the pest or weed control at 500 g/ha was 20% in assay [1] (setting [7]); 20% in the assay on Eleusine indica (ELEIN) (setting [8]); 0% in assay [2] (setting [9]); 10% in assay [3] (setting [10]); 0% in the assay on Lolium perenne (LOLPE) (setting [11]); 10% in assay [4] (setting [12]). Further, the pest or weed control at 500 g/ha with Setaria faberi (SETFA) (setting [13]) came out at 10%; in [5] (setting [14]), 30%; in assay [6] (setting [15]), 10%.

In the case of `CCOP(=O)(CC[n+]1ccc(-c2ncccn2)cn1)OCC` [Compound A124, 1-(2-diethoxyphosphorylethyl)-4-pyrimidin-2-yl-pyridazin-1-ium], the pest or weed control at 500 g/ha in assay [1] (setting [7]) stood at 10%; in the assay on Eleusine indica (ELEIN) (setting [8]) it was 0%; in assay [2] (setting [9]), 0%; in assay [3] (setting [10]) it was 0%; in the assay on Lolium perenne (LOLPE) (setting [11]), 0%; in assay [4] (setting [12]), 0%. The pest or weed control at 500 g/ha with Setaria faberi (SETFA) (setting [13]) came to 20%; in [5] (setting [14]), 0%; in [6] (setting [15]), 0%.

Turning to `O=S(=O)([O-])CC[n+]1ccc(-c2ncccc2Cl)cn1` [Compound A141], the pest or weed control at 500 g/ha amounted to 40% in assay [1] (setting [7]); 60% with Eleusine indica (ELEIN) (setting [8]); 30% in [2] (setting [9]); 100% in assay [3] (setting [10]); 30% with Lolium perenne (LOLPE) (setting [11]); 20% in assay [4] (setting [12]). The pest or weed control at 500 g/ha with Setaria faberi (SETFA) (setting [13]) was determined as 50%; in assay [5] (setting [14]), 60%; in [6] (setting [15]), 50%.

`Cc1cnc(-c2cc[n+](CCS(=O)(=O)[O-])nc2)nc1C` [Compound A97]: the pest or weed control at 500 g/ha in assay [1] (setting [7]) stood at 90%; with Eleusine indica (ELEIN) (setting [8]), 90%; in [2] (setting [9]) it was 30%; in [3] (setting [10]) it was 90%; with Lolium perenne (LOLPE) (setting [11]), 70%; in assay [4] (setting [12]) it was 70%. The results for the pest or weed control at 500 g/ha (with Setaria faberi (SETFA) (setting [13]); in assay [5] (setting [14]); in assay [6] (setting [15])) were 90%, 20% and 90%, respectively.

For the compound `Nc1nccc(-c2cc[n+](CCS(=O)(=O)[O-])nc2)n1` [Compound A158], the pest or weed control at 500 g/ha was determined as 30% in assay [1] (setting [16]); 50% with Eleusine indica (ELEIN) (setting [17]); 30% in [2] (setting [18]); 100% in assay [3] (setting [19]); 30% with Lolium perenne (LOLPE) (setting [20]); 80% in assay [4] (setting [21]). For the same compound, the pest or weed control at 500 g/ha with Setaria faberi (SETFA) (setting [22]) was 40%; in assay [5] (setting [23]), 80%; in assay [6] (setting [24]), 20%.

As to `Cc1cccc(-c2cc[n+](CCS(=O)(=O)[O-])nc2)n1` [Compound A75], the pest or weed control at 500 g/ha turned out to be 50% in [1] (setting [7]); 60% in the assay on Eleusine indica (ELEIN) (setting [8]); 20% in assay [2] (setting [9]); 60% in assay [3] (setting [10]); 50% in the assay with Lolium perenne (LOLPE) (setting [11]); 60% in assay [4] (setting [12]). Besides, the figures for the pest or weed control at 500 g/ha (in the assay with Setaria faberi (SETFA) (setting [13]); in assay [5] (setting [14]); in assay [6] (setting [15])) were 70%, 30% and 50%, respectively.

On to `O=C(O)CC[n+]1ccc(-c2ccnc(C(F)(F)F)c2)cn1` [Compound A166], for which the pest or weed control at 500 g/ha in [1] (setting [16]) is 70%; in the assay on Eleusine indica (ELEIN) (setting [17]) it was 60%; in assay [2] (setting [18]), 60%; in [3] (setting [19]) it was 30%; in the assay on Lolium perenne (LOLPE) (setting [20]) it was 70%; in assay [4] (setting [21]), 60%. Further, the pest or weed control at 500 g/ha with Setaria faberi (SETFA) (setting [22]) turned out to be 40%; in assay [5] (setting [23]), 50%; in assay [6] (setting [24]), 50%.

Turning to `O=S(=O)([O-])CC[n+]1ccc(-c2cncc(C(F)(F)F)n2)cn1` [Compound A110], the pest or weed control at 500 g/ha turned out to be 40% in assay [1] (setting [7]); 90% in the assay with Eleusine indica (ELEIN) (setting [8]); 80% in assay [2] (setting [9]); 100% in assay [3] (setting [10]); 50% with Lolium perenne (LOLPE) (setting [11]); 80% in assay [4] (setting [12]). Besides, the pest or weed control at 500 g/ha with Setaria faberi (SETFA) (setting [13]) came to 50%; in [5] (setting [14]) it was 100%; in assay [6] (setting [15]) it was 50%.

On to `CN(C)c1ccnc(-c2cc[n+](CCS(=O)(=O)[O-])nc2)n1` [Compound A16], for which the pest or weed control at 500 g/ha came to 50% in assay [1] (setting [7]); 70% in the assay with Eleusine indica (ELEIN) (setting [8]); 40% in assay [2] (setting [9]); 60% in assay [3] (setting [10]); 10% in the assay with Lolium perenne (LOLPE) (setting [11]); 50% in [4] (setting [12]). In addition, the pest or weed control at 500 g/ha in the assay on Setaria faberi (SETFA) (setting [13]) worked out at 50%; in assay [5] (setting [14]), 30%; in assay [6] (setting [15]), 60%.

For `Cc1nc(-c2cc[n+](CCS(=O)(=O)[O-])nc2)ncc1Cl` [Compound A99], the pest or weed control at 500 g/ha in [1] (setting [7]) amounted to 40%; in the assay on Eleusine indica (ELEIN) (setting [8]), 80%; in assay [2] (setting [9]), 30%; in assay [3] (setting [10]), 80%; with Lolium perenne (LOLPE) (setting [11]), 20%; in [4] (setting [12]), 90%. In addition, the pest or weed control at 500 g/ha in the assay on Setaria faberi (SETFA) (setting [13]) worked out at 50%; in assay [5] (setting [14]) it was 30%; in assay [6] (setting [15]) it was 50%.

(Values after US20220125051A1, “PRE-HARVEST DESICCATION METHOD” (SYNGENTA CROP PROTECTION AG, priority 2019, published 2022).)
